Results on 27 compounds are retold here after the NIST ThermoML archive (doi:10.1016/j.fluid.2014.11.020).

This data set can be described thus: activity coefficient (dimensionless); of the first substance listed, at infinite dilution; xn = mol fraction of the nth substance listed. The settings on record: Liquid, Chromatography, x1 = 0.

Structures are written as SMILES. ± gives the expanded uncertainty stated by the source.

For `CC(C)O` [propan-2-ol] + CN(C)c1cc[n+](COCCCOC[n+]2ccc(N(C)C)cc2)cc1.O=S(=O)([N-]S(=O)(=O)C(F)(F)F)C(F)(F)F.O=S(=O)([N-]S(=O)(=O)C(F)(F)F)C(F)(F)F, the activity coefficient by setting is: (323.15 K) 1.42 ± 0.09; (333.15 K) 1.3 ± 0.08; (343.15 K) 1.18 ± 0.08.

As for `CCCCCC` [hexane] + CCCCCCCCn1cc[n+](COCCCOC[n+]2ccn(CCCCCCCC)c2C)c1C.N#C[N-]C#N.N#C[N-]C#N, the activity coefficient (323.15 K) turned out to be 8.9 ± 0.6.

Consider `CCCCCCCCCCC` [undecane] + N#C[N-]C#N.N#C[N-]C#N.c1ccc(Cn2cc[n+](COCCCOC[n+]3ccn(Cc4ccccc4)c3)c2)cc1, for which the activity coefficient stood at 554 ± 38 (323.15 K), 508 ± 35 (333.15 K) and 457 ± 31 (343.15 K).

As for `c1ccccc1` [benzene] + CCCCCCCCn1cc[n+](COCCCOC[n+]2ccn(CCCCCCCC)c2C)c1C.O=S(=O)([N-]S(=O)(=O)C(F)(F)F)C(F)(F)F.O=S(=O)([N-]S(=O)(=O)C(F)(F)F)C(F)(F)F, the activity coefficient is 0.42 ± 0.04 (323.15 K), 0.41 ± 0.03 (333.15 K) and 0.41 ± 0.03 (343.15 K).

Turning to `C#CCCCCC` [1-heptyne] + CCCOC[n+]1ccn(C)c1.F[B-](F)(F)F, the activity coefficient was found to be 16.6 ± 1.1 (323.15 K), 16.7 ± 1.1 (333.15 K) and 16.7 ± 1.1 (343.15 K).

In the case of `CCC(=O)CC` [pentan-3-one] + CCCOC[n+]1ccn(Cc2ccccc2)c1.F[B-](F)(F)F, the activity coefficient is, setting by setting: (323.15 K) 1.73 ± 0.12; (333.15 K) 1.74 ± 0.12; (343.15 K) 1.75 ± 0.12.

Take `CC#N` [acetonitrile] + CCCCCCCCn1cc[n+](COCCC)c1C.N#C[N-]C#N: the activity coefficient came to 0.72 ± 0.05 (323.15 K), 0.7 ± 0.05 (333.15 K) and 0.69 ± 0.05 (343.15 K).

On to `C#CCCCC` [1-hexyne] + Cn1cc[n+](COCCCOC[n+]2ccn(C)c2)c1.O=S(=O)([N-]S(=O)(=O)C(F)(F)F)C(F)(F)F.O=S(=O)([N-]S(=O)(=O)C(F)(F)F)C(F)(F)F, for which the activity coefficient is, setting by setting: (323.15 K) 3.81 ± 0.26; (333.15 K) 3.68 ± 0.25; (343.15 K) 3.4 ± 0.23.

On to `CO` [methanol] + CN(C)c1cc[n+](COCCCOC[n+]2ccc(N(C)C)cc2)cc1.O=S(=O)([N-]S(=O)(=O)C(F)(F)F)C(F)(F)F.O=S(=O)([N-]S(=O)(=O)C(F)(F)F)C(F)(F)F, for which the activity coefficient by setting is: (323.15 K) 0.91 ± 0.06; (333.15 K) 0.86 ± 0.06; (343.15 K) 0.79 ± 0.05.

For the compound `CCCO` [propan-1-ol] + N#C[N-]C#N.N#C[N-]C#N.c1ccc(Cn2cc[n+](COCCCOC[n+]3ccn(Cc4ccccc4)c3)c2)cc1, the activity coefficient (323.15 K) came to 1.24 ± 0.08, the activity coefficient (333.15 K) came to 1.2 ± 0.08 and the activity coefficient (343.15 K) amounted to 1.14 ± 0.07.

`CCCCCC` [hexane] + CN(C)c1cc[n+](COCCCOC[n+]2ccc(N(C)C)cc2)cc1.O=S(=O)([N-]S(=O)(=O)C(F)(F)F)C(F)(F)F.O=S(=O)([N-]S(=O)(=O)C(F)(F)F)C(F)(F)F: the activity coefficient is, setting by setting: (323.15 K) 7.4 ± 0.5; (333.15 K) 5.82 ± 0.4; (343.15 K) 4.7 ± 0.32.

With `ClCCl` [dichloromethane] + CCCCCCCCn1cc[n+](COCCC)c1C.N#C[N-]C#N, the activity coefficient was 0.34 ± 0.03 (323.15 K), 0.37 ± 0.03 (333.15 K) and 0.37 ± 0.03 (343.15 K).

In the case of `CC#N` [acetonitrile] + CCCCCCCCn1cc[n+](COCCCOC[n+]2ccn(CCCCCCCC)c2C)c1C.N#C[N-]C#N.N#C[N-]C#N, the activity coefficient is, setting by setting: (323.15 K) 0.46 ± 0.04; (333.15 K) 0.46 ± 0.04; (343.15 K) 0.45 ± 0.04.

Take `CO` [methanol] + N#C[N-]C#N.N#C[N-]C#N.c1ccc(Cn2cc[n+](COCCCOC[n+]3ccn(Cc4ccccc4)c3)c2)cc1: the activity coefficient came out at 0.52 ± 0.04 (323.15 K), 0.51 ± 0.04 (333.15 K) and 0.52 ± 0.04 (343.15 K).

For `C#CCCCCC` [1-heptyne] + CCCOC[n+]1ccn(C)c1.N#C[N-]C#N, the activity coefficient worked out at 10.9 ± 0.74 (323.15 K), 10.9 ± 0.74 (333.15 K) and 10.7 ± 0.73 (343.15 K).

Take `CC(C)CO` [2-methyl-1-propanol] + CCCOC[n+]1ccn(C)c1.F[B-](F)(F)F: the activity coefficient reads like this: (323.15 K) 4.35 ± 0.3; (333.15 K) 3.95 ± 0.27; (343.15 K) 3.56 ± 0.24.

Take `c1ccncc1` [pyridine] + CCCOC[n+]1ccc(N(C)C)cc1.O=S(=O)([N-]S(=O)(=O)C(F)(F)F)C(F)(F)F: the activity coefficient runs as follows: (323.15 K) 0.43 ± 0.04; (333.15 K) 0.45 ± 0.04; (343.15 K) 0.46 ± 0.04.

Regarding `CCCO` [propan-1-ol] + CCCOC[n+]1ccn(C)c1.F[B-](F)(F)F, the activity coefficient was 3.1 ± 0.21 (323.15 K), 2.79 ± 0.19 (333.15 K) and 2.53 ± 0.17 (343.15 K).

On to `CCCCO` [butan-1-ol] + CCCOC[n+]1ccc(N(C)C)cc1.O=S(=O)([N-]S(=O)(=O)C(F)(F)F)C(F)(F)F, for which the activity coefficient (323.15 K) came to 2.25 ± 0.15, the activity coefficient (333.15 K) is 2.04 ± 0.14 and the activity coefficient (343.15 K) was found to be 1.85 ± 0.12.

Regarding `C1CCCCCC1` [cycloheptane] + Cn1cc[n+](COCCCOC[n+]2ccn(C)c2)c1.O=S(=O)([N-]S(=O)(=O)C(F)(F)F)C(F)(F)F.O=S(=O)([N-]S(=O)(=O)C(F)(F)F)C(F)(F)F, the activity coefficient is, setting by setting: (323.15 K) 41.5 ± 2.8; (333.15 K) 51.9 ± 3.5; (343.15 K) 63.5 ± 4.3.

Take `ClC(Cl)Cl` [trichloromethane] + CN(C)c1cc[n+](COCCCOC[n+]2ccc(N(C)C)cc2)cc1.O=S(=O)([N-]S(=O)(=O)C(F)(F)F)C(F)(F)F.O=S(=O)([N-]S(=O)(=O)C(F)(F)F)C(F)(F)F: the activity coefficient reads like this: (323.15 K) 0.67 ± 0.05; (333.15 K) 0.69 ± 0.05; (343.15 K) 0.7 ± 0.05.

Regarding `ClC(Cl)(Cl)Cl` [tetrachloromethane] + CCCOC[n+]1ccn(Cc2ccccc2)c1.N#C[N-]C#N, the activity coefficient worked out at 2.5 ± 0.17 (323.15 K), 2.58 ± 0.18 (333.15 K) and 2.67 ± 0.18 (343.15 K).

Consider `CCCC(C)=O` [pentan-2-one] + CCCOC[n+]1ccn(C)c1.N#C[N-]C#N, for which the activity coefficient (323.15 K) was 2.24 ± 0.15, the activity coefficient (333.15 K) turned out to be 2.27 ± 0.15 and the activity coefficient (343.15 K) came to 2.32 ± 0.16.

Turning to `CC(C)CO` [2-methyl-1-propanol] + CCCCCCCCn1cc[n+](COCCCOC[n+]2ccn(CCCCCCCC)c2C)c1C.O=S(=O)([N-]S(=O)(=O)C(F)(F)F)C(F)(F)F.O=S(=O)([N-]S(=O)(=O)C(F)(F)F)C(F)(F)F, the activity coefficient (323.15 K) stood at 0.8 ± 0.05, the activity coefficient (333.15 K) is 0.72 ± 0.05 and the activity coefficient (343.15 K) is 0.67 ± 0.05.

Turning to `C1COCCO1` [1,4-dioxane] + CCCOC[n+]1ccn(C)c1.F[B-](F)(F)F, the activity coefficient worked out at 1.39 ± 0.09 (323.15 K), 1.42 ± 0.09 (333.15 K) and 1.46 ± 0.1 (343.15 K).

Regarding `c1ccccc1` [benzene] + Cn1cc[n+](COCCCOC[n+]2ccn(C)c2)c1.N#C[N-]C#N.N#C[N-]C#N, the activity coefficient turned out to be 3.03 ± 0.21 (323.15 K), 3.05 ± 0.21 (333.15 K) and 3.08 ± 0.21 (343.15 K).

As to `CCCCCCCCCCC` [undecane] + Cn1cc[n+](COCCCOC[n+]2ccn(C)c2)c1.O=S(=O)([N-]S(=O)(=O)C(F)(F)F)C(F)(F)F.O=S(=O)([N-]S(=O)(=O)C(F)(F)F)C(F)(F)F, the activity coefficient is 193 ± 13 (323.15 K), 191 ± 13 (333.15 K) and 162 ± 11 (343.15 K).
